Laboratory results from patent US20140303216A1, “COMPOSITIONS AND METHODS FOR INDUCING DISRUPTION OF BLOOD VASCULATURE AND FOR REDUCING ANGIOGENESIS” (BOARD OF REGENTS, THE UNIVERSITY OF TEXAS SYSTEM, priority 2011, published 2014).

Assays:
[1] = test system: HT1080 human fibrosarcoma xenograft; test: HT1080 human fibrosarcoma xenograft model; type: in vivo, athymic Cre nu/nu mice; settings: TBZ 50 mg/kg
Experimental: Specific pathogen-free athymic Cre Nu/nu mice were purchased from Charles River Laboratories. The HT-1080 human fibrosarcoma cell line was obtained from the American Type Culture Collection (ATCC). HT-1080 cells were cultured in DMEM (Gibco) containing 10% fetal bovine serum (FBS, Gibco) in tissue culture flasks at 37° C. in a humidified atmosphere of 5% CO2. In order to generate a mouse xenograft model, a suspension of the HT-1080 cells (3×10^6 in 50p1 PBS) mixed with an equal volume of Matrigel (BD Bioscience) was subcutaneously implanted into the flank region of 7-8 week old female mice. Upon establishment of tumors (approx. 40 mm^3), mice were given intraperitoneal injections of 1 mg thiabendazole (Sigma-Aldrich), suspended in 20 μl 100% DMSO. As a control, an equal volume of DMSO was injected in the same manner. Tumor growth was monitored by measuring the length and width of each tumor using digital calipers, and the tumor volume in mm^3 calculated by the formula: Volume=(width)^2×length/2. Upon a tumor reaching the maximum size permitted by the Institutional Animal Care and Use Committee (1.5 cm in diameter), the mouse was sacrificed, and the tumor excised. […] Control cells received 1% DMSO.

[2] = test system: vasculature within kdr:GFP frogs; test: Time-lapse fluorescence microscopy of vasculature in kdr:GFP Xenopus embryos; type: in vivo, Xenopus laevis
Source text: Immunohistochemistry and kdr:GFP transgenic Xenopus laevis were imaged on an inverted Zeiss LSM5 Pascal confocal microscope and Zeiss 5-LIVE Fast Scanning confocal microscope. Confocal images were processed and cropped in Imaris software (BITPLANE) and Adobe Illustrator and Adobe Photoshop for compilation of Figures.
(§1) To analyze action of TBZ precisely on inhibition of angiogenesis and disruption of vasculature, we tested TBZ on two different developmental stages. Xenopus late tailbud embryos at stage 31 were selected for testing the inhibitory effect of TBZ on angiogenesis (FIG. 3A-D). This embryonic stage coincides with the onset of intersomitic vein (ISV) angiogenesis, the process of forming smaller blood vessels by sprouting from pre-existing blood vessels. To observe disruption of existing vasculature, we selected stage 35/36 embryos in which the posterior cardinal vein (PCV) and ISV are already developed (FIG. 15).
As a direct test of the vascular disrupting activity of TBZ, we performed time-lapse imaging of developing vasculature. Using Kdr-GFP transgenic embryos^12 and time-lapse confocal microscopy^22, we could effectively image developing vasculature in vivo for periods of up 20 hours. During this time, the growth of existing blood vessels and the sprouting of new vasculature could be easily followed (FIG. 16). […] Upon longer exposures, endothelial cells scattered and many underwent dramatic rounding (FIGS. 5A, 17).

[3] = test system: HT1080 cells; test: HT1080 cell proliferation in vitro; type: cell-based, human; settings: cultured in vitro
Source text: FIG. 21. […] Error bars represent mean±1 s.d. across 14-15 fields of view of 200× magnification confocal microscopy cell images across 2 independent experiments. Scale bar, 100 μm.

[4] = test system: human umbilical vein endothelial cells (HUVECs); test: HUVEC tube formation, in vitro angiogenesis assay; type: cell-based
Experimental: Human umbilical vein endothelial cells (HUVECs) were purchased from Clonetics, and were used between passages 4 and 9. HUVECs were cultured on 0.1% gelatin-coated (Sigma) plates in endothelial growth medium-2 (EGM-2; Clonetics) in tissue culture flasks at 37° C. in a humidified atmosphere of 5% CO2. HUVECs (10^4 cells) were seeded in a 96-well plate coated with 50 μl of ECMatrix (Chemicon) or Matrigel (BD Bioscience) according to the manufacturer's instructions. Cells were incubated for 16 h on EGM-2 containing thiabendazole, dissolved in 1% DMSO. Negative control cells were treated with 1% DMSO in the same manner. As a positive control, siRNA versus the human HoxA9 sequence^30 was transfected into HUVECs using Lipofectamine RNAiMAX (Invitrogen) according to the manufacturer's instructions. Tube formation was observed using an inverted microscope (Nikon, eclipse TS100), and branch points were measured using ImageJ software (http://rsb.info.nih.gov/ij).

[5] = short-term or long-term studies at doses up to 15 times the usual human dose; cited from earlier work
[6] = test system: mitochondria; test: Mitochondrial mass and membrane potential (MitoTracker Green/Red); type: cell-based
[7] = rats; cited from earlier work
[8] = test system: developing Xenopus embryos; test: Xenopus embryo angiogenesis, in situ hybridization for erg/apinr and kdr:GFP imaging; type: in vivo, Xenopus laevis
Source text: Female adult Xenopus were ovulated by injections of human chorionic gonadotropin, and eggs were fertilized in vitro and dejellied in 3% cysteine (pH 7.9) and subsequently reared in ⅓×Marc's modified Ringer's (MMR) solution. For microinjections, embryos were placed in a solution of 2% Ficoll in ⅓×MMR solution, injected using forceps and an Oxford universal manipulator, reared in 2% Ficoll in ⅓×MMR to stage 9, then washed and reared in ⅓×MMR solution alone. For bilateral rab11b knock-down experiments, the posterior cardinal vein and intersomitic veins were targeted by injecting Morpholino antisense oligonucleotides (MOs) into the two ventral cells equatorially at the four-cell stage. For unilateral knockdown, only one ventral cell was injected. MOs were injected at 40 ng per blastomere. For the experiments to see the drug effects, embryos were placed in a solution of each chemical dissolved in 1% DMSO diluted in ⅓×MMR during indicated stages. For bead micro-surgery implantation, Affi-Gel Blue Gel beads (Bio-Rad) were soaked with 0.7 mg/ml recombinant mouse VEGF 164 aa (R&D systems) or BSA as a control. Whole-mount in situ hybridization for erg and apinr was performed as described^29.
as §1

[9] = test system: HUVECs; test: HUVEC wound scratch cell migration assay; type: cell-based, human; settings: 250 μM TBZ, 15 h
Experimental: HUVECs (1.2×10^5 cells) were seeded into 24-well plate for 24 h, and the monolayers were wounded identically. Then, cells were washed with PBS and treated with EBM-2 containing 1% DMSO or 250 μM TBZ dissolved in 1% DMSO with combination of Y27632 or GGPP (Sigma). In the case of Y27632 treatment, cells were preincubated for 2 h before wounding. Cells were photographed at time zero and after 15 h, and the ratios of cell free area [(0 h-15 h)/0 h] were calculated.

For `c1ccc2[nH]c(-c3cscn3)nc2c1` [TBZ, 4-(1H-1,3-benzodiazol-2-yl)-1,3-thiazole], the “tumor microvessel density in xenografts (CD31 staining)” value [1] was “significantly impair”, the “xenograft growth, time course of tumor size and final tumor mass” value ([1]; intraperitoneal, 27 d) was “significantly slowed” and the “exposure time after which established blood vessels disintegrated” value ([2]; Kdr-GFP transgenic embryos) was “approximately 90 minutes”. For the same compound, the “growth and sprouting of blood vessels” value ([2]; Kdr-GFP transgenic embryos, time-lapse confocal microscopy) was “completely prevented”, the “persistence of vascular gene expression in dispersed, rounded kdr-GFP+ endothelial cells after treatment” value ([2]; in vivo) was “up to 17 hours” and the “time within which endothelial cells retract from one another and round up” value ([2]; in vivo imaging of the vasculature) was at most 2 h. The “recovery of vasculature after washout of the drug” value ([2]; washout after TBZ-induced cell dispersal and rounding) was “significant re-spreading of endothelial cells and re-formation of blood vessels”, the “rate of proliferation in HT1080 cells” value [3] was “did not alter” and the “angiogenesis (tube formation) in HUVECs” value ([4]; 100 and 250 μM TBZ in 1% DMSO, 16 h) was “inhibited angiogenesis in a dose-dependent manner”. The “concentration at which angiogenesis inhibition was observed” value ([4]; human cells in vitro) was 100 to 250 µM, the carcinogenic effects [5] was “no carcinogenic effects” and the “mitochondrial mass (MitoTracker Green signal)” value [6] was “no differences”. The “mitochondrial membrane potential (ratio of MitoTracker Red signal to Mitotracker Green signal)” value [6] was “no differences”, the effect on fertility [7] was “does not appear to affect fertility” and the “concentration at which angiogenesis inhibition was observed” value ([8]; Xenopus embryos in vivo) was 100 to 250 µM. The “angiogenesis, expression of vascular-specific genes apinr and erg” value ([8]; Xenopus embryos, 250 μM TBZ in 1% DMSO, treated at stage 31, imaged at stages 35-36) was “severely impaired angiogenesis”, the “disruption of pre-existing vasculature” value ([8]; treatment at later stages (stage 36), in situ hybridization versus apinr at stage 39) was “overt breakdown of established vasculature” and the “endothelial cell migration in scratch wound assay” value [9] was “significantly slowed”.
